In patent US10703764B2, “Benzopiperazine compositions as BET bromodomain inhibitors” (FORMA Therapeutics, Inc., priority 2013, dated 2020) one finds IC50 data, which are given here for 28 molecules.

Assay [1] concerns the target T1, BRD4 BD1 (Homo sapiens, UniProt O60885).
T1 construct: made in house
Description: AlphaScreen binding assay, BRD4 Bromodomain 1. The method, boiled down: (§1)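 Compound dilution series were mixed with His-tagged BRD4 bromodomain and biotinylated tetra-acetylated H4 (1-21) peptide at pH 7.3 (BD1 and peptide at 50 nM, BD2 and peptide at 100 nM). Donor and acceptor beads were then added, and plates were equilibrated at least 1 h before reading. IC50 values were fitted with a four-parameter logistic model.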
On the technique in general: Bead proximity is the source of the signal in Alpha formats.

Assay [2] deals with T2, BRD4 BD2 (Homo sapiens, UniProt O60885).
T2 construct: made in house
Description: AlphaScreen binding assay, BRD4 Bromodomain 2. The essentials: as §1

Assay [3] concerns MV4-11 cells. The experiment in a line: Oncology cell growth assay (3-day proliferation, CellTiter-Glo). It counts as cell-based. The settings on record: Homo sapiens, MV4-11, 72 h, AML cell line MV4-11, 72 hours, compounds grouped by IC50 range, read-out: MV4-11 IC50 (inhibition of proliferation, gIC50). As to the method: The impact of Example compounds on cancer cell proliferation was determined using the acute myelocytic leukemia (AML) cell line MV4-11 (ATCC) in a 3-day proliferation assay. MV4-11 cells were maintained in RPMI 1640 media supplemented with 10% FBS at 37° C. and an atmosphere of 5% CO2. For compound testing, compound dilutions series were prepared in DMSO via a 3-fold serial dilution from 2 mM to 0.001 mM in 384-well white flat bottom plates. The final compound concentrations in the wells were 10, 3.3, 1.1, 0.37, 0.12, 0.041, 0.013 and 0.0045 μM. MV4-11 cells were plated at a density of 3000 cells/well in final volume of 50 μl culture media and incubated for 72 hours. […] Luminescent signal from the CellTiter-Glo assay was read on an EnVision multilabel plate reader (PerkinElmer). Values for the concentration that inhibited cell growth by 50% (gIC50) between the DMSO control and background control (no cells) were determined using IDBS Activity Base software with a four parameter logistic curve fit by the equation y=A+((B−A)/(1+((C/x)^D))), wherein A denotes the bottom plateau of the curve, B denotes the top plateau of the curve, C denotes the x value at the middle of the curve, D denotes the slope factor, x denotes the original known x values, and y denotes the original known y values. Data was fitted using the Levenburg Marquardt algorithm.

For `CCOC(=O)N1C[C@H](C)N(C(C)=O)c2ccc(-c3ccc(OCCS(C)(=O)=O)cc3)cc21` [Example I-1102], the results for the IC50 in assay [1], in assay [2] and in assay [3] were 100 to 1000 nM, 50 to 500 nM and above 500 nM, respectively.

Regarding `CCCS(=O)(=O)c1ccc(-c2ccc3c(c2)N(C(=O)C2CCC2)C[C@H](C)N3C(C)=O)cc1` [Example I-1071], the IC50 in assay [1] fell in the range of 1000 to 10000 nM; in assay [2], 50 to 500 nM; in assay [3] it was 100 to 500 nM.

As to `CC(=O)N1c2ccc(-c3cnn(CCN4CCCS4(=O)=O)c3)cc2N(C(=O)C2CC2)C[C@@H]1C` [Example I-659], the figures for the IC50 in assay [1], in assay [2] and in assay [3] were 100 to 1000 nM, 50 to 500 nM and above 500 nM, respectively.

`COC(=O)N1c2ccc(-c3cnn(C4COC4)c3)cc2N(C(=O)OC(C)C)C[C@@H]1C` [Example I-326]: the IC50 in assay [1] is 100 to 1000 nM; in assay [2], 50 to 500 nM; in assay [3] it was above 500 nM.

Take `COc1ccc(Cl)cc1OC(=O)N1C[C@H](C)N(C(C)=O)c2ccc(-c3cnn(C4CC4)c3)cc21` [Example I-530]: the IC50 in assay [1] was 100 to 1000 nM; in assay [2], 50 to 500 nM; in assay [3], below 100 nM.

Turning to `CC(=O)N1c2ccc(-c3cnn(C4CC4)c3)cc2N(C(=O)Oc2ccc3cccnc3c2)C[C@@H]1C` [Example I-1202], the results for the IC50 in assay [1], in assay [2] and in assay [3] were 100 to 1000 nM, 50 to 500 nM and 100 to 500 nM, respectively.

For `CC(=O)N1c2ccc(-c3ccc(S(=O)(=O)NC(C)(C)C)cc3)cc2N(C(=O)OC2CCCCC2)C[C@@H]1C` [Example I-1265], the figures for the IC50 in assay [1], in assay [2] and in assay [3] were 100 to 1000 nM, 50 to 500 nM and 100 to 500 nM, respectively.

For `CC(=O)N1c2ccc(-c3ccc(N4CCS(=O)(=O)CC4)cc3)cc2N(C(=O)c2ccco2)C[C@@H]1C` [Example I-417], the IC50 in assay [1] is 100 to 1000 nM; in assay [2], below 50 nM; in assay [3], below 100 nM.

`CC(=O)N1c2ccc(-c3cn(C)cn3)cc2N(C(=O)c2ccco2)C[C@@H]1C` [Example I-401]: the values for the IC50 in assay [1], in assay [2] and in assay [3] were 1000 to 10000 nM, below 50 nM and 100 to 500 nM, respectively.

With `CC(=O)N1c2ccc(-c3ccc(S(=O)(=O)N(C)C)c(C)c3)cc2N(C(=O)C2CC2)C[C@@H]1C` [Example I-1300], the IC50 in assay [1] was 100 to 1000 nM; in assay [2] it was 50 to 500 nM; in assay [3], above 500 nM.

In the case of `CC(=O)N1c2ccc(-c3cccc(S(N)(=O)=O)c3)cc2N(C(=O)OC2CCCCC2)C[C@@H]1C` [Example I-1219], the IC50 in assay [1] was 100 to 1000 nM; in assay [2], below 50 nM; in assay [3], below 100 nM.

Turning to `COC(=O)N1c2ccc(-c3ccc(C(=O)N4CC(O)C4)cc3)cc2N(C(=O)OC(C)C)C[C@@H]1C` [Example I-579], the IC50 is 100 to 1000 nM in assay [1], 50 to 500 nM in assay [2] and 100 to 500 nM in assay [3].

`CC(=O)N1c2ccc(-c3cnn(C4CCNC(=O)C4)c3)cc2N(C(=O)OC2CCOCC2)C[C@@H]1C` (stereo partly drawn) [Example I-163, oxan-4-yl (3S)-4-acetyl-3-methyl-7-[1-(2-oxopiperidin-4-yl)-1H-pyrazol-4-yl]-1,2,3,4-tetrahydroquinoxaline-1-carboxylate]: the results for the IC50 in assay [1] and in assay [3] were 100 to 1000 nM and 100 to 500 nM, respectively.

With `CC(=O)N1c2ccc(-c3cnn(C4CN[C@@H]4C)c3)cc2N(C(=O)OC2CCC2)C[C@@H]1C` (stereo partly drawn) [Example I-170, cyclobutyl (3S)-4-acetyl-3-methyl-7-{1-[(2R)-2-methylazetidin-3-yl]-1H-pyrazol-4-yl}-1,2,3,4-tetrahydroquinoxaline-1-carboxylate], the IC50 lay within 100 to 1000 nM in assay [1] and 100 to 500 nM in assay [3].

Consider `CC(=O)N1c2ccc(-c3cnn(C4CCNC(=O)C4)c3)cc2N(C(=O)OC(C)C)C[C@@H]1C` (stereo partly drawn) [Example I-166, propan-2-yl (3S)-4-acetyl-3-methyl-7-[1-(2-oxopiperidin-4-yl)-1H-pyrazol-4-yl]-1,2,3,4-tetrahydroquinoxaline-1-carboxylate], for which the figures for the IC50 in assay [1] and in assay [3] were 100 to 1000 nM and 100 to 500 nM, respectively.

Consider `CC(C)OC(=O)N1C[C@H](C)N(C(=O)C2CC2)c2ccc(-c3ccc(C(=O)N(C)CC(=O)N(C)C)cc3)cc21` [Example I-560], for which the IC50 in assay [1] fell in the range of 100 to 1000 nM; in assay [3], 100 to 500 nM.

For the molecule `CC(=O)N1c2ccc(-c3cnn(C4CCNC(=O)C4)c3)cc2N(C(=O)OC2CCC(F)(F)CC2)C[C@@H]1C` (stereo partly drawn) [Example I-165, 4,4-difluorocyclohexyl (3S)-4-acetyl-3-methyl-7-[1-(2-oxopiperidin-4-yl)-1H-pyrazol-4-yl]-1,2,3,4-tetrahydroquinoxaline-1-carboxylate], the IC50 in assay [1] fell in the range of 100 to 1000 nM; in assay [3] it was 100 to 500 nM.

Take `CC(=O)N1c2ccc(-c3cnn([C@H]4CCCS(=O)(=O)C4)c3)cc2N(C(=O)OC2CCC2)C[C@@H]1C` [Example I-174, cyclobutyl (3S)-4-acetyl-7-{1-[(3S)-1,1-dioxo-1λ^6-thian-3-yl]-1H-pyrazol-4-yl}-3-methyl-1,2,3,4-tetrahydroquinoxaline-1-carboxylate]: the IC50 in assay [1] and in assay [3] was below 100 nM in each case.

As to `CC(=O)N1c2ccc(-c3cnn([C@H]4CCCS(=O)(=O)C4)c3)cc2N(C(=O)OCC2CC2)C[C@@H]1C` [Example I-172, cyclopropylmethyl (3S)-4-acetyl-7-{1-[(3S)-1,1-dioxo-1λ^6-thian-3-yl]-1H-pyrazol-4-yl}-3-methyl-1,2,3,4-tetrahydroquinoxaline-1-carboxylate], the IC50 in assay [1] is 100 to 1000 nM; in assay [3], above 500 nM.

Turning to `CC(=O)N1c2ccc(-c3ccc(C(=O)NCCN)cc3)cc2N(C(=O)OC(C)C)C[C@@H]1C` [Example I-480], the IC50 in assay [1] lay within 100 to 1000 nM; in assay [3] it was 100 to 500 nM.

`CC(=O)N1c2ccc(-c3cnn(C4CCNC(=O)C4)c3)cc2N(C(=O)OC2CCC2)C[C@@H]1C` (stereo partly drawn) [Example I-175, cyclobutyl (3S)-4-acetyl-3-methyl-7-[1-(2-oxopiperidin-4-yl)-1H-pyrazol-4-yl]-1,2,3,4-tetrahydroquinoxaline-1-carboxylate]: the IC50 in assay [1] and in assay [3] was below 100 nM each time.

In the case of `CC(=O)N1c2ccc(-c3cnn(C4CCS(=O)(=O)CC4)c3)cc2N(C(=O)OC2CCC2)C[C@@H]1C` [Example I-154, cyclobutyl (3S)-4-acetyl-7-[1-(1,1-dioxo-1λ^6-thian-4-yl)-1H-pyrazol-4-yl]-3-methyl-1,2,3,4-tetrahydroquinoxaline-1-carboxylate], the IC50 in assay [1] and in assay [3] was below 100 nM each time.

On to `CC(=O)N1c2ccc(-c3cnn(C4CS(=O)(=O)C4)c3)cc2N(C(=O)OC2CC(F)(F)C2)C[C@@H]1C` [Example I-1, 3,3-difluorocyclobutyl (3S)-4-acetyl-7-[1-(1,1-dioxo-1λ^6-thietan-3-yl)-1H-pyrazol-4-yl]-3-methyl-1,2,3,4-tetrahydroquinoxaline-1-carboxylate], for which the IC50 fell in the range of 100 to 1000 nM in assay [1] and 100 to 500 nM in assay [3].

In the case of `CC(=O)N1c2ccc(-c3cnn(C4CN[C@H]4C)c3)cc2N(C(=O)C2CC2)C[C@@H]1C` (stereo partly drawn) [Example I-160, 1-[(2S)-4-cyclopropanecarbonyl-2-methyl-6-{1-[(2S)-2-methylazetidin-3-yl]-1H-pyrazol-4-yl}-1,2,3,4-tetrahydroquinoxalin-1-yl]ethan-1-one], the IC50 in assay [1] is 100 to 1000 nM; in assay [3], below 100 nM.

On to `CC(=O)N1c2ccc(-c3cnn(C4CCNC(=O)C4)c3)cc2N(C(=O)OC2CCC2)C[C@@H]1C` (single isomer, unassigned) [Example I-176], for which the IC50 in assay [1] was in the range of 100 to 1000 nM; in assay [3], 100 to 500 nM.

`CC(=O)N1c2ccc(-c3cnn(C4CCS(=O)(=O)CC4)c3)cc2N(C(=O)OCC2CC2)C[C@@H]1C` [Example I-169, cyclopropylmethyl (3S)-4-acetyl-7-[1-(1,1-dioxo-1λ^6-thian-4-yl)-1H-pyrazol-4-yl]-3-methyl-1,2,3,4-tetrahydroquinoxaline-1-carboxylate]: the IC50 in assay [1] was 100 to 1000 nM; in assay [3], above 500 nM.

Turning to `CC(=O)N1c2ccc(-c3cnn([C@@H]4CCCS(=O)(=O)C4)c3)cc2N(C(=O)OC2CCC2)C[C@@H]1C` [Example I-173, cyclobutyl (3S)-4-acetyl-7-{1-[(3R)-1,1-dioxo-1λ^6-thian-3-yl]-1H-pyrazol-4-yl}-3-methyl-1,2,3,4-tetrahydroquinoxaline-1-carboxylate], the IC50 in assay [1] is 100 to 1000 nM; in assay [3], below 100 nM.

Take `CC(=O)N1c2ccc(-c3cnn(C4CN[C@H]4C)c3)cc2N(C(=O)OC2CC(F)(F)C2)C[C@@H]1C` (mixture of isomers) [Example I-168, 3,3-difluorocyclobutyl (3S)-4-acetyl-3-methyl-7-{1-[(2S)-2-methylazetidin-3-yl]-1H-pyrazol-4-yl}-1,2,3,4-tetrahydroquinoxaline-1-carboxylate]: the IC50 in assay [1] is 100 to 1000 nM; in assay [3], above 500 nM.
